# In patent US20220186063A1, “BEVERAGE STRAW COATED WITH AN ACTIVE COMPOUND AND METHOD OF MANUFACTURING” (priority 2020, published 2022):
# Assay: Release of THC from straw coating as water is drawn through the straw (Example 5)
# Format: physicochemical
# Conditions: after 220 ml of water passes through the straw over 30 minutes; composite of six straws
# Description: A study was performed to determine how long it takes for […] to be released from the coating as a liquid is drawn through the coated straw, and to determine how much liquid is required to achieve the full dose of the active ingredient.
# The volume of dispersion required to achieve a 10 mg dose of THC was calculated. A pipette was calibrated to ensure that it dispenses the correct amount of dispersion to achieve the desired dose, and then it was loaded with the appropriate amount of the dispersion.
# The calculated amount of dispersion was injected using the pipette into PFTA sugarcane straws. The dispersion was allowed to gradually coat the inside of each straw by arranging them vertically. Care was taken to not allow the dispersion to come out of the bottom of the straws.
# Straws were dried by taping them horizontally to a tray using food-grade mylar and placing the tray into a convection oven at 55° C. for approximately 60 minutes or until dispersion was visibly dry. Straws were checked every 30 minutes. Once the straws were dry, they were removed from the oven and allowed to cool.
# For each straw, a syringe was affixed to the end of a prepared coated straw. The opposing end of the straw was placed in a beaker of deionized water. […]
smiles,measurement,value
"CCCCCc1cc(O)c2c(c1)OC(C)(C)[C@@H]1CCC(C)=C[C@@H]21 [THC, (6aR,10aR)-6,6,9-trimethyl-3-pentyl-6a,7,8,10a-tetrahydro-6H-benzo[c]chromen-1-ol]",THC released from the coating,approximately 60%
